Test results taken from ChEMBL document CHEMBL3885861, “Open TG-GATES”.

Species on record: Rattus norvegicus
Experiment: Open TG-GATES - Regimen: Single
Assay type: toxicity, organism-based, Sprague-Dawley
Design: regimen Single, gender Male, age 6 weeks
Settings: in vivo, po, route gavage; for KIDNEY_L / KIDNEY_R / KIDNEY_TOTAL: tissue Kidney; for LIVER: tissue Liver
[1] = 60 mg/kg, 24 h, tissue Plasma, dose level Low
[2] = 200 mg/kg, 3 h, dose level Middle
[3] = 200 mg/kg, 3 h, tissue Blood, dose level Middle
[4] = 200 mg/kg, 3 h, tissue Plasma, dose level Middle
[5] = 200 mg/kg, 6 h, dose level Middle
[6] = 200 mg/kg, 6 h, tissue Blood, dose level Middle
[7] = 200 mg/kg, 6 h, tissue Plasma, dose level Middle
[8] = 200 mg/kg, 9 h, dose level Middle
[9] = 200 mg/kg, 9 h, tissue Blood, dose level Middle
[10] = 200 mg/kg, 9 h, tissue Plasma, dose level Middle
[11] = 200 mg/kg, 24 h, dose level Middle
[12] = 200 mg/kg, 24 h, tissue Blood, dose level Middle
[13] = 200 mg/kg, 24 h, tissue Plasma, dose level Middle

`CC(C)Cc1ccc(C(C)C(=O)O)cc1` (centres undefined) [IBUPROFEN] gave a TG [1] of 83.2 mg/dL, a TP [1] of 5.5 g/dL and a gamma-GTP [1] of 1.4 IU/L. It also gave a TERMINAL_BW [2] of 203.6 g, an APTT [3] of 21.7 s and a Bas [3] of 0%. It also gave an Eos [3] of 0.8%, a Fbg [3] of 294 mg/dL and a Hb [3] of 13 g/dL. For the same compound, the Lym [3] was 78.6%, the MCH [3] was 21.8 pg and the MCHC [3] was 33.8%. It also gave an MCV [3] of 64.6 fL, a Mono [3] of 1.6% and a PT [3] of 15.6 s. The Plat [3] was 130.9 x10_4/uL, the RBC [3] was 596.8 x10_4/ul and the Ret [3] was 8.5%. It also gave a WBC [3] of 68.9 x10_2/uL, a KIDNEY_L [2] of 0.9 g and a KIDNEY_R [2] of 0.9 g. For the same compound, the KIDNEY_TOTAL [2] was 1.8 g, the LIVER [2] was 9.4 g and the ALP [4] was 1619.6 IU/L. The ALT [4] was 50.2 IU/L, the AST [4] was 86.4 IU/L and the CRE [4] was 0.2 mg/dL. The DBIL [4] was 0.002 mg/dL, the GLC [4] was 180 mg/dL and the IP [4] was 8.8 mg/dL. The K [4] was 4 meq/L, the LDH [4] was 307.4 IU/L and the Na [4] was 141.6 meq/L. The PL [4] was 125.2 mg/dL, the RALB [4] was 3.1 g/dL and the TBIL [4] was 0.022 mg/dL. The TC [4] was 73 mg/dL, the TG [4] was 64.2 mg/dL and the TP [4] was 5.4 g/dL. It also gave a gamma-GTP [4] of 1 IU/L, a TERMINAL_BW [5] of 197.7 g and a Bas [6] of 0%. The Eos [6] was 1%, the Fbg [6] was 277 mg/dL and the Hb [6] was 13.4 g/dL. The Ht [6] was 39.7%, the Lym [6] was 74.2% and the MCHC [6] was 33.7%. It also gave an MCV [6] of 65.6 fL, a Mono [6] of 2.6% and a PT [6] of 15.5 s. It also gave a Plat [6] of 122.9 x10_4/uL, an RBC [6] of 605 x10_4/ul and a Ret [6] of 8.2%. The WBC [6] was 77.7 x10_2/uL, the KIDNEY_L [5] was 0.9 g and the KIDNEY_R [5] was 0.9 g. For the same compound, the KIDNEY_TOTAL [5] was 1.8 g, the LIVER [5] was 8.6 g and the ALP [7] was 1495.2 IU/L. For the same compound, the ALT [7] was 48.6 IU/L, the AST [7] was 83.4 IU/L and the CRE [7] was 0.2 mg/dL. The DBIL [7] was 0.002 mg/dL, the GLC [7] was 170.8 mg/dL and the IP [7] was 9.6 mg/dL. For the same compound, the K [7] was 4.3 meq/L, the LDH [7] was 244.8 IU/L and the Na [7] was 140.4 meq/L. For the same compound, the PL [7] was 110.6 mg/dL, the RALB [7] was 2.8 g/dL and the TBIL [7] was 0.022 mg/dL. It also gave a TC [7] of 63.8 mg/dL, a TG [7] of 57.2 mg/dL and a TP [7] of 5.2 g/dL. The gamma-GTP [7] was 1 IU/L, the TERMINAL_BW [8] was 200.1 g and the APTT [9] was 21.5 s. The Bas [9] was 0%, the Eos [9] was 0.4% and the Fbg [9] was 268.6 mg/dL. The Hb [9] was 13.2 g/dL, the Ht [9] was 39.7% and the Lym [9] was 60.8%. For the same compound, the MCHC [9] was 33.3%, the MCV [9] was 63.6 fL and the Mono [9] was 3%. For the same compound, the Neu [9] was 35%, the PT [9] was 15.8 s and the Plat [9] was 113 x10_4/uL. For the same compound, the RBC [9] was 624.6 x10_4/ul, the Ret [9] was 7.8% and the WBC [9] was 87.7 x10_2/uL. For the same compound, the KIDNEY_L [8] was 0.9 g, the KIDNEY_R [8] was 0.9 g and the KIDNEY_TOTAL [8] was 1.8 g. The LIVER [8] was 8.1 g, the ALP [10] was 1296.6 IU/L and the ALT [10] was 37.4 IU/L. The AST [10] was 69.2 IU/L, the CRE [10] was 0.2 mg/dL and the DBIL [10] was 0.004 mg/dL. The GLC [10] was 180.2 mg/dL, the K [10] was 4.3 meq/L and the LDH [10] was 226.2 IU/L. For the same compound, the Na [10] was 140.6 meq/L, the RALB [10] was 2.8 g/dL and the TBIL [10] was 0.018 mg/dL. It also gave a TC [10] of 60.6 mg/dL, a TG [10] of 50.4 mg/dL and a TP [10] of 5 g/dL. It also gave a gamma-GTP [10] of 1.2 IU/L, a TERMINAL_BW [11] of 212.3 g and an APTT [12] of 21.5 s. For the same compound, the Bas [12] was 0%, the Eos [12] was 1% and the Fbg [12] was 360 mg/dL. For the same compound, the Hb [12] was 12.9 g/dL, the Ht [12] was 37.8% and the Lym [12] was 66.4%. It also gave an MCH [12] of 21.7 pg, an MCHC [12] of 34.3% and an MCV [12] of 63.3 fL. The Mono [12] was 4.2%, the PT [12] was 16.2 s and the Plat [12] was 111.7 x10_4/uL. The RBC [12] was 596.8 x10_4/ul, the Ret [12] was 7.5% and the KIDNEY_L [11] was 0.9 g. It also gave a KIDNEY_R [11] of 1 g, a KIDNEY_TOTAL [11] of 1.9 g and an ALP [13] of 1263 IU/L. It also gave an ALT [13] of 41.4 IU/L, an AST [13] of 69.2 IU/L and a CRE [13] of 0.2 mg/dL. The Ca [13] was 10.4 mg/dL, the DBIL [13] was 0 mg/dL and the GLC [13] was 182.8 mg/dL. It also gave an IP [13] of 7.6 mg/dL, a K [13] of 4.3 meq/L and an LDH [13] of 210.6 IU/L. The Na [13] was 141.8 meq/L, the PL [13] was 145.2 mg/dL and the RALB [13] was 2.7 g/dL. It also gave a TBIL [13] of 0.002 mg/dL, a TC [13] of 77 mg/dL and a TG [13] of 141.2 mg/dL. It also gave a TP [13] of 5 g/dL and a gamma-GTP [13] of 1.4 IU/L.
